Patent US12668646B2, “Cross-linking compounds and methods of use thereof” (North Carolina State University, priority 2019, dated 2026)
Values joined by “and” are separate entries in the source; they are usually repeats but may differ in a detail not shown here. Identical values can stand only once.

How the values were obtained:
[1] = system: tritosomes; assay: Indigoid dye formation with tritosomes; assay type: biochemical
Method: The results from the glucosidase survey prompted several further experiments. First, a parallel set of studies was carried out with inclusion of several oxidants commonly employed in histochemical studies, given that the indigoid dye forming process requires the presence of an oxidant. […] The activity of the β-glucosidase was affected only slightly in the presence of a non-ionic detergent. To verify that the results observed in Table 1 were reliable, a 5-mg scale reaction of 33 was carried out to isolate indigo 43, which was obtained in 66% yield (Scheme 7). The 66% isolated yield corresponded well with the enzymatic yield of […] (Table 1, entry 15).
General methods. β-Glucosidase from almonds (lyophilized powder, ≥2 units/mg solid) and peroxidase from horseradish were purchased from Sigma-Aldrich. β-Glucosidase from Agrobacterium sp. (recombinant, suspension in 3.2 M (NH4)2SO4) was purchased from Megazyme; the concentration in solution was determined by absorption spectroscopy with E^0.1%=2.20 cm^−1 at 280 nm.^37 Tritosomes were purchased from XenoTech. Rat liver homogenate was purchased from MP Biomedicals.

[2] = system: β-glucosidase; assay: Treatment of F-9 with β-glucosidase; assay type: biochemical; conditions: result in words
Method: Triazine-based A2BC architectures. Cyanuric chloride (F-8) was treated with 2 equiv of F-7 followed by tyramine to afford F-9 in 56% yield (Scheme 17). […] Treatment of N-(6-hydroxyhexyl)maleimide (F-10) (K. A. Keller, et al., Tetrahedron Lett., 2005, 46, 1181-1184. “A Thermally-Cleavable Linker for Solid-Phase Synthesis”) with cyanuric chloride (F-8) followed by F-9 in the presence of bases gave F-11 in 77% yield. […] While F-9 and F-11 were attractive from a synthetic standpoint given the ability to derivatize the 5-hydroxy group of the indoxyl unit without protection of the four hydroxy groups of the glucosyl unit, the reaction with a β-glucosidase was sine qua non in the molecular design. Accordingly, we moved to the design of a more suitable architecture.

[3] = system: β-glucosidase from almonds; assay: Indigogenic reaction with β-glucosidase from almonds; assay type: biochemical
[4] = target: T1, β-glucosidase from Agrobacterium (Agrobacterium sp., UniProt P12614); assay: Indigogenic reaction with β-glucosidase from Agrobacterium; assay type: biochemical; conditions: for Yield (%) β-glucosidase from Agrobacterium: as E4 but ϵ = 2.6 × 10^4 M^−1 cm^−1 measured for 43; for Yield of indigoid dye: 33 100 μM, enzyme 200 nM
T1 construct: purchased Megazyme
T1 sequence (P12614 1-459): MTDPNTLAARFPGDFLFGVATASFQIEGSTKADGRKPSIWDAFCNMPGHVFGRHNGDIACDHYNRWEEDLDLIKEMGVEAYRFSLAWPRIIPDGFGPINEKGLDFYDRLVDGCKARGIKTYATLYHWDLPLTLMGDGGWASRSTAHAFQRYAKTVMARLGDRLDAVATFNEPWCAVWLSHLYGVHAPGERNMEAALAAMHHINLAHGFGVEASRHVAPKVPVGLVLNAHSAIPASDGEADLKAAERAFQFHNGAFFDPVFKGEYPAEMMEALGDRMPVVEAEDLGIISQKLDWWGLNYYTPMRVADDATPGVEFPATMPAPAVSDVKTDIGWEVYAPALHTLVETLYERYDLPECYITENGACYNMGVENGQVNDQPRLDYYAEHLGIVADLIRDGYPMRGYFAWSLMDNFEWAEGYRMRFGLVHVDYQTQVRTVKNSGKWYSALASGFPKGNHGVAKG
Method: Next, the β-glucosidase from Agrobacterium sp. was investigated as the trigger enzyme for indigoid dye formation. […] The reaction was carried out using the enzyme (200 nM) and indoxyl-glucoside 33 (100 μM) in phosphate buffer (pH 4-9, containing 2% DMF) at 37° C. […] Note that with 200 nM enzyme and 100 μM substrate, complete reaction requires 500 turnovers of each enzyme.
Reactions with β-glucosidase from Agrobacterium. An indoxyl compound in DMF (2 μL, 5 mM) and β-glucosidase from Agrobacterium in 10 mM phosphate buffer [2 μL, 10 μM, pH 7.0, containing 50 mM NaCl and 0.6 M (NH4)2SO4] were mixed with 50 mM phosphate buffer (96 μL, pH 7.0). The reaction mixture was incubated at 37° C. for 2 h and then centrifuged for 3 min. Any precipitate was separated from the supernatant and dissolved in DMF (200 μL). The resulting solution was analyzed by absorption spectroscopy. The experiment was repeated three times.

[5] = Solubility in aqueous buffer; assay type: physicochemical; conditions: 100 mM phosphate buffer (pH 7.4, containing 100 mM NaCl), room temperature
Description: Water solubility of the indoxyl glucoside is important for biological applications. […] Therefore, this compound is not suitable for bioconjugation. The synthesis of 34 relies on successive substitution of the dichloroanilinotriazine unit (derived from N,N-bis(2-methoxyethyl)aniline^31 and cyanuric chloride) with indoxyl-glucoside-PEG-OH and BCN-PEG-NH2 building blocks.
To improve the water solubility of the indoxyl species, a sulfobetaine unit^32,33 was incorporated as a water-solubilizing group. Sulfobetaines are stable zwitterions over a wide range of pH. Synthesis of an indoxyl bearing a sulfobetaine unit is illustrated in Scheme 6. Boc-piperazine (35) was treated with 1,3-propane sultone to afford 36 in 63% yield. Quaternization of the tertiary nitrogen atom in 36 with 3-bromopropanol gave Boc-protected sulfobetaine 37 in 69% yield. The Boc group was cleaved with trifluoroacetic acid (TFA) to afford piperazine-TFA salt 38 in 97% yield. The N-acetyl group of 32 was selectively deprotected with NaHCO3/MeOH in 84% yield. The product 39, piperazine-TFA salt 38, and BCN-amine 14 were assembled at a triazine ring via one-flask, successive substitution of cyanuric chloride to afford 40 in 51% yield. Cleavage of the acetyl groups of sulfobetaine 40 provided 41 in 98% yield.

[6] = target: T2, β-glucosidase from Agrobacterium plus rat liver homogenate (Agrobacterium sp., UniProt P12614); assay: Reaction with β-glucosidase from Agrobacterium in rat liver homogenate; assay type: biochemical; conditions: 33 100 μM, enzyme 200 nM, 2% DMF, 37° C., 4 h; ϵ = 2.6 × 10^4 M^−1 cm^−1
T2 construct: purchased Megazyme
T2 sequence (P12614 1-459): T1 sequence (P12614 1-459)
Method: Finally, indigoid-dye formation was carried out in rat liver homogenate (Table 1, rightmost column). Good yields were obtained in the case of 42 (65%, entry 4) and 27 (50%, entry 13). […] However, when β-glucosidase from Agrobacterium (200 nM) was present in rat liver homogenate, the indigoid dye was obtained in 81% yield (entry 15).
Reaction of 33 with β-glucosidase from Agrobacterium in rat liver homogenate. A DMF solution of 33 (2 μL, 5 mM) and β-glucosidase from Agrobacterium in 10 mM phosphate buffer [2 μL, 10 μM, pH 7.0, containing 50 mM NaCl and 0.6 M (NH4)2SO4] were mixed with rat liver homogenate (96 μL). The reaction mixture was incubated at 37° C. for 4 h and then centrifuged for 3 min. Any precipitate was separated from the supernatant and then suspended in DMF (200 μL). The suspension was centrifuged for 3 min. The supernatant was analyzed by absorption spectroscopy.

[7] = system: rat liver homogenate; assay: Indigoid-dye formation in rat liver homogenate; assay type: biochemical; conditions: as E7 but ϵ = 2.6 × 10^4 M^−1 cm^−1 measured for 43
Method: Finally, indigoid-dye formation was carried out in rat liver homogenate (Table 1, rightmost column).
Reactions in rat liver homogenate. An indoxyl compound in DMF (5 μL, 20 mM) was mixed with rat liver homogenate (95 μL). The reaction mixture was incubated at 37° C. for 24 h. After allowing to cool to room temperature, the reaction mixture was diluted with DMF (900 μL). The mixture was heated at 70° C. for 2 min and then centrifuged for 2 min. The supernatant was separated from any precipitate. This extraction procedure was repeated two or three times with DMF (100-500 μL). The combined supernatant (1500-1800 μL) was analyzed by absorption spectroscopy.

OC[C@H]1O[C@@H](Oc2c[nH]c3ccc(Oc4nc(NCCc5ccc(O)cc5)nc(Oc5ccc6[nH]cc(O[C@@H]7O[C@H](CO)[C@@H](O)[C@H](O)[C@H]7O)c6c5)n4)cc23)[C@H](O)[C@@H](O)[C@@H]1O [Compound F-9, 2,4-Bis[3-(β-D-glucopyranosyloxy)-1H-indol-5-yloxy]-6-[2-(4-hydroxyphenyl)ethylamino]-1,3,5-triazine]
Yield of indigoid dye with tritosomes [1]: ca. 4%
Indigoid dye formation upon treatment with β-glucosidase [2]: did not form the corresponding indigoid dye

COc1nc(Oc2ccc3[nH]cc(O[C@@H]4O[C@H](CO)[C@@H](O)[C@H](O)[C@H]4O)c3c2)nc(N2CCOCC2)n1 [Compound 19, 5-[(4-Methoxy-6-morpholino-1,3,5-triazin-2-yl)oxy]-1H-indole-3-yl β-D-glucopyranoside]
Indigoid dye formation with tritosomes ([1]; result in words): low yield
Yield (%) β-glucosidase from almonds ([3]; indoxyl 1 mM, enzyme 1 unit/mL, 0.01M acetate buffer pH 5, 5% DMF, 37° C., 16-19 h, ϵ = 1.27 × 10^4 M^−1 cm^−1 measured for 4): <1%

O=C(NCCOCCOCCNc1nc(OCCOCCOCCOc2c(Br)cc3[nH]cc(O[C@@H]4O[C@H](CO)[C@@H](O)[C@H](O)[C@H]4O)c3c2Br)nc(N2CC[N+](CCCO)(CCCS(=O)(=O)[O-])CC2)n1)OC[C@@H]1[C@@H]2CCC#CCC[C@@H]21 [Compound 41]
Yield (%) β-glucosidase from Agrobacterium [4]: 106% and 106 ± 4^g %
solubility [5]: > 400 µM

OCCOCCOCCOc1c(Br)cc2[nH]cc(O[C@@H]3O[C@H](CO)[C@@H](O)[C@H](O)[C@H]3O)c2c1Br [Compound 33, 4,6-Dibromo-5-[1-hydroxy-3,6,9-trioxanon-9-yl]-1H-indol-3-yl β-D-glucopyranoside]
Yield (%) β-glucosidase from Agrobacterium plus rat liver homogenate [6]: 81%
Yield of indigoid dye ([4]; pH 6-9, 3 h, in words): High to quantitative yields
Yield of indigoid dye ([4]; phosphate buffer pH 4, 3 h): 6%
Yield of indigoid dye ([4]; phosphate buffer pH 5, 3 h): 38%
Yield (%) β-glucosidase from Agrobacterium [4]: 99%
Yield (%) rat liver homogenate [7]: < 5%
Isolated yield of indigo 43 ([3]; 5-mg scale reaction of 33, acetate buffer pH 5.0, 37° C., 22 h): 66%
Yield (%) β-glucosidase from almonds ([3]; as E1 but ϵ = 2.6 × 10^4 M^−1 cm^−1 measured for 43): 52% and 52^g %
